# Laboratory results reported in US8759342B2, “Benzo[1,4]oxazin-3-one, benzo[1,4]thiazin-3-one and quinolin-2-one urotensin II receptor antagonists” (Janssen Pharmaceutica NV, priority 2006, dated 2014).
# Biological target: T1, rat GPR14 (U-II receptor) (Rattus norvegicus, UniProt P49684)
# T1 construct: expressed in transfected cells
# T1 sequence (P49684 1-386): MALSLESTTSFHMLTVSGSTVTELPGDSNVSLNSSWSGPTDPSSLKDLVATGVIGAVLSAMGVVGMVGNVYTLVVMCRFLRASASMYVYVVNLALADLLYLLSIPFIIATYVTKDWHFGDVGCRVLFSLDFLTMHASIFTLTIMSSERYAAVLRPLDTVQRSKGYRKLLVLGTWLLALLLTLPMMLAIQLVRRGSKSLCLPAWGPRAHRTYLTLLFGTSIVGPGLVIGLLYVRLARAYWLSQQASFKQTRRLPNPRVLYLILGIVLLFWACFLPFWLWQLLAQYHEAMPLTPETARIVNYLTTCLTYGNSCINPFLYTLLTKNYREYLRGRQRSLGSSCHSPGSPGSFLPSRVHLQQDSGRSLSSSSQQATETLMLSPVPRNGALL
# Test: Calcium flux assay (FLIPR)
# Format: cell-based
# Conditions: Inhibition of acetyl-cyclic[Cys-Phe-Trp-Lys-(2-Nal)-Cys]-NH2 (1 nM) induced Ca2+ mobilization (FLIPR) in CHO cells transfected with rat UII receptor; 5 min incubation
# Description: To derive these cells, the complete coding sequence of rat […] was amplified by nested PCR from rat heart marathon-Ready cDNA. […] The PCR products were cloned into pcDNA3 (Invitrogen) digested with EcoR I and Xba I. Clones containing rat U-II receptor were verified by complete sequencing of the U-II receptor insert to ensure a lack of PCR-introduced errors. The constructed vector was transfected into CHO cells by using lipofectamine (GIBCO BRL). CHO cells with high expression of rat U-II receptor were selected and established as stable cell lines by using G418. CHO cells were seeded at 25,000 cells per well into 96-well, black-wall, clear-bottom microtiter plates 24 hrs before assay. Cells in culture media (DMEM/F12 containing 15 mM HEPES, L-glutamine, pyridoxine hydrochloride; 10% fetal bovine serum; 1 mg/mL G418 sulfate; antibiotic-antimycotic; pH 7.4) were loaded with proprietary dye, from the FLIPR Calcium Assay Kit (Molecular Devices), prepared in assay buffer (Hanks Balanced Salts Solution, 20 mM HEPES, 0.1% BSA, 2.5 mM probenecid, pH 7.4), and incubated for 1 hr at 37° C. Calcium mobilization determinations were performed at room temperature (23° C.).
row,Compound,IC50
1,"O=C1COc2ccccc2N1CCN1CCC(C(=O)NCCCCc2ccccc2)(c2ccccc2)CC1 [Cpd 108, 1-[2-(3-oxo-2,3-dihydro-benzo[1,4]oxazin-4-yl)-ethyl]-4-phenyl-piperidine-4-carboxylic acid (4-phenyl-butyl)-amide]",8.8 µM
2,O=C(NCCCCc1ccccc1)c1ccccc1C1CCN(CCN2C(=O)COc3ccccc32)CC1 [Cpd 4],3.1 µM
3,COC(=O)c1ccccc1C1CCN(CCN2C(=O)COc3ccccc32)CC1 [Cpd 93],32 µM
4,"O=C(NC1CCc2ccccc21)c1ccccc1C1CCN(CCN2C(=O)COc3ccccc32)CC1 (centres unmarked) [Cpd 27, N-indan-1-yl-2-{1-[2-(3-oxo-2,3-dihydro-benzo[1,4]oxazin-4-yl)-ethyl]-piperidin-4-yl}-benzamide]",43 µM
5,"COc1ccccc1CCNC(=O)c1ccccc1C1CCN(CCN2C(=O)COc3ccccc32)CC1 [Cpd 15, N-[2-(2-methoxy-phenyl)-ethyl]-2-{1-[2-(3-oxo-2,3-dihydro-benzo[1,4]oxazin-4-yl)-ethyl]-piperidin-4-yl}-benzamide]",8 µM
6,"O=C(NCCc1ccc(F)c(F)c1)c1ccccc1C1CCN(CCN2C(=O)COc3ccccc32)CC1 [Cpd 19, N-[2-(3,4-difluoro-phenyl)-ethyl]-2-{1-[2-(3-oxo-2,3-dihydro-benzo[1,4]oxazin-4-yl)-ethyl]-piperidin-4-yl}-benzamide]",6 µM
7,"O=C(NCCN1CCCC1)c1ccccc1C1CCN(CCN2C(=O)COc3ccccc32)CC1 [Cpd 30, 2-{1-[2-(3-oxo-2,3-dihydro-benzo[1,4]oxazin-4-yl)-ethyl]-piperidin-4-yl}-N-(2-pyrrolidin-1-yl-ethyl)-benzamide]",32 µM
8,"COc1ccc(CCNC(=O)c2ccccc2C2CCN(CCN3C(=O)COc4ccccc43)CC2)cc1OC [Cpd 10, N-[2-(3,4-dimethoxy-phenyl)-ethyl]-2-{1-[2-(3-oxo-2,3-dihydro-benzo[1,4]oxazin-4-yl)-ethyl]-piperidin-4-yl}-benzamide]",13 µM
9,"O=C(NCCc1ccc(Cl)c(Cl)c1)c1ccccc1C1CCN(CCN2C(=O)COc3ccccc32)CC1 [Cpd 11, N-[2-(3,4-dichloro-phenyl)-ethyl]-2-{1-[2-(3-oxo-2,3-dihydro-benzo[1,4]oxazin-4-yl)-ethyl]-piperidin-4-yl}-benzamide]",5.4 µM
10,"O=C(NCCN1CCCCC1)c1ccccc1C1CCN(CCN2C(=O)COc3ccccc32)CC1 [Cpd 52, 2-{1-[2-(3-oxo-2,3-dihydro-benzo[1,4]oxazin-4-yl)-ethyl]-piperidin-4-yl}-N-(2-piperidin-1-yl-ethyl)-benzamide]",16 µM
11,"CC(CCc1ccccc1)NC(=O)c1ccccc1C1CCN(CCN2C(=O)COc3ccccc32)CC1 (centres unmarked) [Cpd 25, N-(1-methyl-3-phenyl-propyl)-2-{1-[2-(3-oxo-2,3-dihydro-benzo[1,4]oxazin-4-yl)-ethyl]-piperidin-4-yl}-benzamide]",4 µM
12,"O=C(NCCc1ccc(Cl)cc1)c1ccccc1C1CCN(CCN2C(=O)COc3ccccc32)CC1 [Cpd 9, N-[2-(4-chloro-phenyl)-ethyl]-2-{1-[2-(3-oxo-2,3-dihydro-benzo[1,4]oxazin-4-yl)-ethyl]-piperidin-4-yl}-benzamide]",3.2 µM
13,"CC(Cc1ccc(Cl)cc1)NC(=O)c1ccccc1C1CCN(CCN2C(=O)COc3ccccc32)CC1 (centres unmarked) [Cpd 12, N-[2-(4-chloro-phenyl)-1-methyl-ethyl]-2-{1-[2-(3-oxo-2,3-dihydro-benzo[1,4]oxazin-4-yl)-ethyl]-piperidin-4-yl}-benzamide]",10 µM
14,"COCCCNC(=O)c1ccccc1C1CCN(CCN2C(=O)COc3ccccc32)CC1 [Cpd 37, N-(3-methoxy-propyl)-2-{1-[2-(3-oxo-2,3-dihydro-benzo[1,4]oxazin-4-yl)-ethyl]-piperidin-4-yl}-benzamide]",30 µM
15,"CC(=O)NCCNC(=O)c1ccccc1C1CCN(CCN2C(=O)COc3ccccc32)CC1 [Cpd 49, N-(2-acetylamino-ethyl)-2-{1-[2-(3-oxo-2,3-dihydro-benzo[1,4]oxazin-4-yl)-ethyl]-piperidin-4-yl}-benzamide]",38 µM
16,"O=C(NCCc1ccc(C(F)(F)F)cc1)c1ccccc1C1CCN(CCN2C(=O)COc3ccccc32)CC1 [Cpd 40, 2-{1-[2-(3-oxo-2,3-dihydro-benzo[1,4]oxazin-4-yl)-ethyl]-piperidin-4-yl}-N-[2-(4-trifluoromethyl-phenyl)-ethyl]-benzamide]",4 µM
17,"O=C(NCc1ccncc1)c1ccccc1C1CCN(CCN2C(=O)COc3ccccc32)CC1 [Cpd 44, 2-{1-[2-(3-oxo-2,3-dihydro-benzo[1,4]oxazin-4-yl)-ethyl]-piperidin-4-yl}-N-pyridin-4-ylmethyl-benzamide]",21 µM
18,"O=C1COc2ccccc2N1CCN1CCC(c2ccccc2F)CC1 [Cpd 89, 4-{2-[4-(2-fluoro-phenyl)-piperidin-1-yl]-ethyl}-4H-benzo[1,4]oxazin-3-one]",23 µM
19,"O=C(NCC1CCN(C(=O)c2ccccc2)CC1)c1cc(Cl)ccc1C1CCN(CCN2C(=O)COc3ccccc32)CC1 [Cpd 64, N-(1-benzoyl-piperidin-4-ylmethyl)-5-chloro-2-{1-[2-(3-oxo-2,3-dihydro-benzo[1,4]oxazin-4-yl)-ethyl]-piperidin-4-yl}-benzamide]",0.52 µM
20,"O=C(NCCc1ccc(F)cc1)c1ccccc1C1CCN(CCN2C(=O)COc3ccccc32)CC1 [Cpd 16, N-[2-(4-fluoro-phenyl)-ethyl]-2-{1-[2-(3-oxo-2,3-dihydro-benzo[1,4]oxazin-4-yl)-ethyl]-piperidin-4-yl}-benzamide]",8 µM
21,"COC(=O)c1cc(Cl)ccc1C1CCN(CCN2C(=O)COc3ccccc32)CC1 [Cpd 56, 5-chloro-2-{1-[2-(3-oxo-2,3-dihydro-benzo[1,4]oxazin-4-yl)-ethyl]-piperidin-4-yl}-benzoic acid methyl ester]",8 µM
22,"CC(C)(C)OC(=O)NCCCCCNC(=O)c1ccccc1C1CC2CCC(C1)N2CCN1C(=O)COc2ccccc21 (centres unmarked) [Cpd 97, [5-(2-{8-[2-(3-oxo-2,3-dihydro-benzo[1,4]oxazin-4-yl)-ethyl]-8-aza-bicyclo[3.2.1]oct-3-yl}-benzoylamino)-pentyl]-carbamic acid tert-butyl ester]",5.4 µM
23,"COc1ccc(CCNC(=O)c2ccccc2C2CCN(CCN3C(=O)COc4ccccc43)CC2)cc1 [Cpd 14, N-[2-(4-methoxy-phenyl)-ethyl]-2-{1-[2-(3-oxo-2,3-dihydro-benzo[1,4]oxazin-4-yl)-ethyl]-piperidin-4-yl}-benzamide]",4 µM
24,"O=C1COc2ccccc2N1CCN1CCC(c2ccc(Cl)cc2)CC1 [Cpd 85, 4-{2-[4-(4-chloro-phenyl)-piperidin-1-yl]-ethyl}-4H-benzo[1,4]oxazin-3-one]",18 µM
25,"O=C(NCCN1CCNCC1)c1cc(Cl)ccc1C1CCN(CCN2C(=O)COc3ccccc32)CC1 [Cpd 73, 5-chloro-2-{1-[2-(3-oxo-2,3-dihydro-benzo[1,4]oxazin-4-yl)-ethyl]-piperidin-4-yl}-N-(2-piperazin-1-yl-ethyl)-benzamide]",1.9 µM
26,"O=C(c1ccccc1C1CCN(CCN2C(=O)COc3ccccc32)CC1)N1CCc2ccccc2C1 [Cpd 53, 4-(2-{4-[2-(3,4-dihydro-1H-isoquinoline-2-carbonyl)-phenyl]-piperidin-1-yl}-ethyl)-4H-benzo[1,4]oxazin-3-one]",18 µM
